In patent US9521850B2 (University of Florida Research Foundation, Incorporated, priority 2012, dated 2016):
Values after ≈ are worked out from the molar mass of the structure shown.

How the values were obtained:
Rhizobium etli = test: microbe, parasite or virus in culture; format: cell-based
SecA of Ca. L. asiaticus = SecA of Ca. L. asiaticus (Candidatus Liberibacter asiaticus, UniProt A0ABM5NFG5); test: biochemical
[1] = test system: Agrobacterium tumefaciens; test: microbe, parasite or virus in culture; format: cell-based
Liberibacter crescens = test: microbe, parasite or virus in culture; format: cell-based
Xanthomonas citri = test: microbe, parasite or virus in culture; format: cell-based, Xanthomonas citri subsp. citri
Mesorhizobium loti = test: microbe, parasite or virus in culture; format: cell-based
Sinorhizobium meliloti = test: microbe, parasite or virus in culture; format: cell-based
A. tumefaciens = test: microbe, parasite or virus in culture; format: cell-based; details: Agrobacterium tumefaciens, 24 h
Bradyrhizobium japonicum = test: microbe, parasite or virus in culture; format: cell-based
CLAS populations = test: Effect on CLAS populations, mean Ct by quantitative PCR (Example 2)

Question: Which MBC (Rhizobium etli; 24 hrs) does the source give for O=C1CCCC2=C1C(c1cccs1)Nc1ccc(C(=O)c3ccccc3)cc1N2 (stereo not shown) [Compound C20, 7-benzoyl-11-(2-thienyl)-2,3,4,5,10,11-hexahydro-1H-diabenzo[b,e] [1,4]diazepin-1-one] here?
Answer: 64 µg/mL (≈ 160 µM)

Question: What about the MIC (Rhizobium etli; 24 hrs) of the same compound?
Answer: 32 µg/mL (≈ 79.9 µM)

Question: And the MBC (Rhizobium etli; 120 hrs)?
Answer: 64 µg/mL (≈ 160 µM)

Question: What about the MIC (Rhizobium etli; 120 hrs) of the same compound?
Answer: 32 µg/mL (≈ 79.9 µM)

Question: And the IC50 (SecA of Ca. L. asiaticus)?
Answer: 440 nM

Question: What about the MBC [1] of the same compound?
Answer: 128 µg/mL (≈ 320 µM)

Question: And the MIC [1]?
Answer: 32 µg/mL (≈ 79.9 µM)

Question: What about the MBC (Liberibacter crescens; 24 h) of the same compound?
Answer: 16 µg/mL (≈ 39.9 µM)

Question: And the MIC (Liberibacter crescens; 24 h)?
Answer: 16 µg/mL (≈ 39.9 µM)

Question: And the MBC (Liberibacter crescens; 120 h)?
Answer: 32 µg/mL (≈ 79.9 µM)

Question: What about the MIC (Liberibacter crescens; 120 h) of the same compound?
Answer: 32 µg/mL (≈ 79.9 µM)

Question: What about the MBC (Xanthomonas citri) of the same compound?
Answer: 32 µg/mL (≈ 79.9 µM)

Question: What about the MIC (Xanthomonas citri) of the same compound?
Answer: 16 µg/mL (≈ 39.9 µM)

Question: And the MBC (Mesorhizobium loti)?
Answer: 16 µg/mL (≈ 39.9 µM)

Question: What about the MIC (Mesorhizobium loti) of the same compound?
Answer: 8 µg/mL (≈ 20 µM)

Question: What about the MBC (Sinorhizobium meliloti) of the same compound?
Answer: 16 µg/mL (≈ 39.9 µM)

Question: And the MIC (Sinorhizobium meliloti)?
Answer: 16 µg/mL (≈ 39.9 µM)

Question: And the MBC (A. tumefaciens)?
Answer: 256 µg/mL (≈ 639 µM)

Question: What about the MBC (Bradyrhizobium japonicum; 24 hrs) of the same compound?
Answer: 32 µg/mL (≈ 79.9 µM)

Question: What about the MIC (Bradyrhizobium japonicum; 24 hrs) of the same compound?
Answer: 16 µg/mL (≈ 39.9 µM)

Question: What about the MBC (Bradyrhizobium japonicum; 120 hrs) of the same compound?
Answer: 64 µg/mL (≈ 160 µM)

Question: What about the MIC (Bradyrhizobium japonicum; 120 hrs) of the same compound?
Answer: 16 µg/mL (≈ 39.9 µM)

Question: Which results are given for O=C1CC(c2ccccc2)CC2=C1C(c1ccc(O)cc1)Nc1ccc(C(=O)c3ccccc3)cc1N2 (stereo not shown) [SA6, 7-Benzoyl-11-(4-hydroxy-phenyl)-3-phenyl-2,3,4,5,10,11-hexahydro-1H-dibenzo[b,e] [1,4]diazepin-1-one]?
Answer: MBC (Rhizobium etli; 24 hrs): 32 µg/mL (≈ 65.8 µM); MIC (Rhizobium etli; 24 hrs): 32 µg/mL (≈ 65.8 µM); MBC (Rhizobium etli; 120 hrs): 64 µg/mL (≈ 132 µM); MIC (Rhizobium etli; 120 hrs): 64 µg/mL (≈ 132 µM); MBC [1]: 64 µg/mL (≈ 132 µM); MIC [1]: 16 µg/mL (≈ 32.9 µM); MBC (Liberibacter crescens; 24 h): 16 µg/mL (≈ 32.9 µM); MIC (Liberibacter crescens; 24 h): 16 µg/mL (≈ 32.9 µM); MBC (Liberibacter crescens; 120 h): 64 µg/mL (≈ 132 µM); MIC (Liberibacter crescens; 120 h): 32 µg/mL (≈ 65.8 µM); MBC (Xanthomonas citri): 128 µg/mL (≈ 263 µM); MIC (Xanthomonas citri): 64 µg/mL (≈ 132 µM); MBC (Mesorhizobium loti): 32 µg/mL (≈ 65.8 µM); MIC (Mesorhizobium loti): 16 µg/mL (≈ 32.9 µM); MBC (Sinorhizobium meliloti): 32 µg/mL (≈ 65.8 µM); MIC (Sinorhizobium meliloti): 32 µg/mL (≈ 65.8 µM); MBC (Bradyrhizobium japonicum; 24 hrs): 32 µg/mL (≈ 65.8 µM); MIC (Bradyrhizobium japonicum; 24 hrs): 16 µg/mL (≈ 32.9 µM); MBC (Bradyrhizobium japonicum; 120 hrs): 32 µg/mL (≈ 65.8 µM); MIC (Bradyrhizobium japonicum; 120 hrs): 32 µg/mL (≈ 65.8 µM)

Question: How did the MBC (Rhizobium etli; 24 hrs) turn out when O=C1CC(c2ccccc2)CC2=C1C(c1cccs1)Nc1ccc(C(=O)c3ccccc3)cc1N2 (stereo not shown) [SA8, 7-Benzoyl-3-phenyl-11-(2-thienyl)-2,3,4,5,10,11-hexahydro-1H-dibenzo[b,e] [1,4]diazepin-1-one] was run?
Answer: 16 µg/mL (≈ 33.6 µM)

Question: What about the MIC (Rhizobium etli; 24 hrs) of the same compound?
Answer: 8 µg/mL (≈ 16.8 µM)

Question: And the MBC (Rhizobium etli; 120 hrs)?
Answer: 32 µg/mL (≈ 67.1 µM)

Question: And the MIC (Rhizobium etli; 120 hrs)?
Answer: 16 µg/mL (≈ 33.6 µM)

Question: And the MBC [1]?
Answer: 128 µg/mL (≈ 269 µM)

Question: And the MIC [1]?
Answer: 32 µg/mL (≈ 67.1 µM)

Question: And the MBC (Liberibacter crescens; 24 h)?
Answer: 16 µg/mL (≈ 33.6 µM)

Question: And the MIC (Liberibacter crescens; 24 h)?
Answer: 16 µg/mL (≈ 33.6 µM)

Question: What about the MBC (Liberibacter crescens; 120 h) of the same compound?
Answer: 32 µg/mL (≈ 67.1 µM)

Question: And the MIC (Liberibacter crescens; 120 h)?
Answer: 32 µg/mL (≈ 67.1 µM)

Question: And the MBC (Xanthomonas citri)?
Answer: 64 µg/mL (≈ 134 µM)

Question: What about the MIC (Xanthomonas citri) of the same compound?
Answer: 32 µg/mL (≈ 67.1 µM)

Question: And the MBC (Mesorhizobium loti)?
Answer: 32 µg/mL (≈ 67.1 µM)

Question: What about the MIC (Mesorhizobium loti) of the same compound?
Answer: 16 µg/mL (≈ 33.6 µM)

Question: And the MBC (Sinorhizobium meliloti)?
Answer: 32 µg/mL (≈ 67.1 µM)

Question: And the MIC (Sinorhizobium meliloti)?
Answer: 16 µg/mL (≈ 33.6 µM)

Question: And the MBC (Bradyrhizobium japonicum; 24 hrs)?
Answer: 16 µg/mL (≈ 33.6 µM)

Question: What about the MIC (Bradyrhizobium japonicum; 24 hrs) of the same compound?
Answer: 8 µg/mL (≈ 16.8 µM)

Question: And the MBC (Bradyrhizobium japonicum; 120 hrs)?
Answer: 32 µg/mL (≈ 67.1 µM)

Question: What about the MIC (Bradyrhizobium japonicum; 120 hrs) of the same compound?
Answer: 32 µg/mL (≈ 67.1 µM)

Question: What does the source list for CN(C)[C@@H]1C(O)=C(C(N)=O)C(=O)[C@@]2(O)C(O)=C3C(=O)c4c(O)cccc4[C@@](C)(O)[C@H]3[C@H](O)[C@@H]12 [Oxytetracycline, reference compound]?
Answer: MBC (Rhizobium etli; 24 hrs): 4 µg/mL (≈ 8.69 µM); MIC (Rhizobium etli; 24 hrs): 4 µg/mL (≈ 8.69 µM); MBC (Rhizobium etli; 120 hrs): 4 µg/mL (≈ 8.69 µM); MIC (Rhizobium etli; 120 hrs): 4 µg/mL (≈ 8.69 µM); MBC (Liberibacter crescens; 120 h): 8 µg/mL (≈ 17.4 µM); MIC (Liberibacter crescens; 120 h): 8 µg/mL (≈ 17.4 µM); mean Ct value (CLAS populations) (CLAS populations; 2 days after treatment): 26.10 b; mean Ct value (CLAS populations) (CLAS populations; 4 days after treatment): 25.61 b; mean Ct value (CLAS populations) (CLAS populations; Before treatment): 25.36 a; MBC (Bradyrhizobium japonicum; 24 hrs): 4 µg/mL (≈ 8.69 µM); MIC (Bradyrhizobium japonicum; 24 hrs): 4 µg/mL (≈ 8.69 µM); MBC (Bradyrhizobium japonicum; 120 hrs): 4 µg/mL (≈ 8.69 µM); MIC (Bradyrhizobium japonicum; 120 hrs): 4 µg/mL (≈ 8.69 µM)

Question: Which results are given for O=C1CCCC2=C1[C@H](c1ccccc1)Nc1ccc(C(=O)c3ccccc3)cc1N2 [SA4, (11S)-7-Benzoyl-11-phenyl-2,3,4,5,10,11-hexahydro-1H-dibenzo[b,e] [1,4]diazepin-1-one]?
Answer: MBC (Rhizobium etli; 24 hrs): 16 µg/mL (≈ 40.6 µM); MIC (Rhizobium etli; 24 hrs): 8 µg/mL (≈ 20.3 µM); MBC (Rhizobium etli; 120 hrs): 32 µg/mL (≈ 81.1 µM); MIC (Rhizobium etli; 120 hrs): 16 µg/mL (≈ 40.6 µM); MBC [1]: 64 µg/mL (≈ 162 µM); MIC [1]: 16 µg/mL (≈ 40.6 µM); MBC (Liberibacter crescens; 24 h): 32 µg/mL (≈ 81.1 µM); MIC (Liberibacter crescens; 24 h): 16 µg/mL (≈ 40.6 µM); MBC (Liberibacter crescens; 120 h): 64 µg/mL (≈ 162 µM); MIC (Liberibacter crescens; 120 h): 32 µg/mL (≈ 81.1 µM); MBC (Xanthomonas citri): 64 µg/mL (≈ 162 µM); MIC (Xanthomonas citri): 32 µg/mL (≈ 81.1 µM); MBC (Mesorhizobium loti): 32 µg/mL (≈ 81.1 µM); MIC (Mesorhizobium loti): 16 µg/mL (≈ 40.6 µM); MBC (Sinorhizobium meliloti): 64 µg/mL (≈ 162 µM); MIC (Sinorhizobium meliloti): 32 µg/mL (≈ 81.1 µM); MBC (Bradyrhizobium japonicum; 24 hrs): 16 µg/mL (≈ 40.6 µM); MIC (Bradyrhizobium japonicum; 24 hrs): 8 µg/mL (≈ 20.3 µM); MBC (Bradyrhizobium japonicum; 120 hrs): 16 µg/mL (≈ 40.6 µM); MIC (Bradyrhizobium japonicum; 120 hrs): 16 µg/mL (≈ 40.6 µM)

Question: What does the source list for CC(C)[C@H](NC(=O)c1c(F)cccc1F)C(=O)Nc1ccc(-n2cnnn2)cc1 [SA1, 2,6-Difluoro-N-[(2S)-3-methyl-1-oxo-1-{[4-(1H-tetrazol-1-yl)phenyl]amino}-2-butanyl] benzamide]?
Answer: MBC (Rhizobium etli; 24 hrs): 32 µg/mL (≈ 79.9 µM); MIC (Rhizobium etli; 24 hrs): 16 µg/mL (≈ 40 µM); MBC (Rhizobium etli; 120 hrs): 64 µg/mL (≈ 160 µM); MIC (Rhizobium etli; 120 hrs): 32 µg/mL (≈ 79.9 µM); MBC [1]: 64 µg/mL (≈ 160 µM); MIC [1]: 32 µg/mL (≈ 79.9 µM); MBC (Liberibacter crescens; 24 h): 16 µg/mL (≈ 40 µM); MIC (Liberibacter crescens; 24 h): 16 µg/mL (≈ 40 µM); MBC (Liberibacter crescens; 120 h): 32 µg/mL (≈ 79.9 µM); MIC (Liberibacter crescens; 120 h): 32 µg/mL (≈ 79.9 µM); MBC (Xanthomonas citri): 128 µg/mL (≈ 320 µM); MIC (Xanthomonas citri): 64 µg/mL (≈ 160 µM); MBC (Mesorhizobium loti): 32 µg/mL (≈ 79.9 µM); MIC (Mesorhizobium loti): 16 µg/mL (≈ 40 µM); MBC (Sinorhizobium meliloti): 32 µg/mL (≈ 79.9 µM); MIC (Sinorhizobium meliloti): 16 µg/mL (≈ 40 µM); MBC (Bradyrhizobium japonicum; 24 hrs): 16 µg/mL (≈ 40 µM); MIC (Bradyrhizobium japonicum; 24 hrs): 16 µg/mL (≈ 40 µM); MBC (Bradyrhizobium japonicum; 120 hrs): 32 µg/mL (≈ 79.9 µM); MIC (Bradyrhizobium japonicum; 120 hrs): 32 µg/mL (≈ 79.9 µM)
